Patent US9695152B2, “3,4-dihydro-2H-isoquinoline-1-one and 2,3-dihydro-isoindol-1-one compounds” (Hoffmann-La Roche Inc., priority 2013, dated 2017)

What was measured:
CYP11B2 [1] = target: T1, CYP11B2 (Homo sapiens (Human), UniProt P19099); experiment: G-402 cellular enzyme assay, human CYP11B2 (aldosterone release, HTRF); assay type: cell-based; settings: G-402 cells expressing human CYP11B2, 1 μM Deoxycorticosterone
Description: (§1) Herein we identified the use of the G-402 cell line as a host cell to ectopically express (transiently or stably) enzymes of the CYP11 family. Specifically we developed stable G-402 cells expressing ectopically human CYP11B1, human CYP11B2, human CYP11A1, cynmolgus CYP11B1 or cynomolgus CYP11B2 enzyme activity. Importantly the identified cell line G-402 expresses co-factors (adrenodoxin and adrenodoxin reductase) important for the activity of the CYP11 family and no relevant enzyme activity of the CYP11 family (in comparison to H295R cells) was detected in these cells. Therefore the G-402 cell line is uniquely suited as a host cell for the ectopic expression of enzymes from the CYP11 family.
(§2) G-402 cells can be obtained from ATCC (CRL-1440) and were originally derived from a renal leiomyoblastoma.
(§3) The expression plasmids contains the ORF for either human/cyno CYP11B1 or CYP11B2 under the control of a suitable promoter (CMV-promoter) and a suitable resistance marker (neomycin). Using standard techniques the expression plasmid is transfected into G-402 cells and these cells are then selected for expressing the given resistance markers. Individual cell-clones are then selected and assessed for displaying the desired enzymatic activity using 11-Deoxycorticosterone (Cyp11B2) or 11-Deoxycortisol (Cyp11B1) as a substrate.
(§4) G-402 cells expressing CYP11 constructs were established as described above and maintained in McCoy's 5a Medium Modified, ATCC Catalog No. 30-2007 containing 10% FCS and 400 μg/ml G418 (Geneticin) at 37° C. under an atmosphere of 5% CO2/95% air. Cellular enzyme assays were performed in DMEM/F12 medium containing 2.5% charcoal treated FCS and appropriate concentration of substrate (0.3-10 uM 11-Deoxycorticosterone, 11-Deoxycortisol or Corticosterone). For assaying enzymatic activity, cells were plated onto 96 well plates and incubated for 16 h. An aliquot of the supernatant is then transferred and analyzed for the concentration of the expected product (Aldosterone for CYP11B2; Cortisol for CYP11B1). The concentrations of these steroids can be determined using HTRF assays from CisBio analyzing either Aldosterone or Cortisol.
(§5) Inhibition of the release of produced steroids can be used as a measure of the respective enzyme inhibition by test compounds added during the cellular enzyme assay. The dose dependent inhibition of enzymatic activity by a compound is calculated by means of plotting added inhibitor concentrations (x-axes) vs. measured steroid/product level (y-axes). The inhibition is then calculated by fitting the following 4-parameter sigmoidal function (Morgan-Mercer-Flodin (MMF) model) to the raw data points using the least squares method:
(§6) [formula] wherein, A is the maximum y value, B is the EC50 factor determined using XLFit, C is the minimum y value and D is the slope value.
(§7) EC50 values for compounds claimed herein were tested with the G402-based assay system described. Cyp11B2 enzyme activity was tested in presence of 1 μM Deoxycorticosterone and variable amounts of inhibitors; Cyp11B1 enzyme activity was tested in presence of 1 μM Deoxycortisol and variable amounts of inhibitors.

human CYP11B1 = human CYP11B1 (Homo sapiens (Human), UniProt P15538); experiment: G-402 cellular enzyme assay, human CYP11B1 (cortisol release, HTRF); assay type: cell-based; settings: G-402 cells expressing human CYP11B1, 1 μM Deoxycortisol
Description: as §1, §2, §3, §4, §5, §6, §7

[2] = rat, cited from earlier work; for plasma aldosterone: 4 weeks (FAD286), 4 and 8 weeks (spironolactone) of treatment
[3] = rats with experimental heart failure; cited from earlier work
CYP11B2 [4] = target: T1, CYP11B2; settings: patients with primary aldosteronism, cited from earlier work

T1 sequence (P19099 25-503): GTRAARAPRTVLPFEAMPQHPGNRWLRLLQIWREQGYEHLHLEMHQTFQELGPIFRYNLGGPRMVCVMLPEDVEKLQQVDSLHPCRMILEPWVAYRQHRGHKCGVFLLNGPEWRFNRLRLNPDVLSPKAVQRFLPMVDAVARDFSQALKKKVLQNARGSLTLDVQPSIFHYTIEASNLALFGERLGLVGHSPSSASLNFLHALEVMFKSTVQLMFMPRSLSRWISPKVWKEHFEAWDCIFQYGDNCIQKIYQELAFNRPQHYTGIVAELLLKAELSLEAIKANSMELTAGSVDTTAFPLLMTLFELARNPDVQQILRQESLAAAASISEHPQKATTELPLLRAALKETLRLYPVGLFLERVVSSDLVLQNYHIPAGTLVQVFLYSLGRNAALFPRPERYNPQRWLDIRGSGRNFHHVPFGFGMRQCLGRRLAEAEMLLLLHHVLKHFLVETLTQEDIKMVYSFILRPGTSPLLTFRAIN
human CYP11B1, sequence (P15538 25-503): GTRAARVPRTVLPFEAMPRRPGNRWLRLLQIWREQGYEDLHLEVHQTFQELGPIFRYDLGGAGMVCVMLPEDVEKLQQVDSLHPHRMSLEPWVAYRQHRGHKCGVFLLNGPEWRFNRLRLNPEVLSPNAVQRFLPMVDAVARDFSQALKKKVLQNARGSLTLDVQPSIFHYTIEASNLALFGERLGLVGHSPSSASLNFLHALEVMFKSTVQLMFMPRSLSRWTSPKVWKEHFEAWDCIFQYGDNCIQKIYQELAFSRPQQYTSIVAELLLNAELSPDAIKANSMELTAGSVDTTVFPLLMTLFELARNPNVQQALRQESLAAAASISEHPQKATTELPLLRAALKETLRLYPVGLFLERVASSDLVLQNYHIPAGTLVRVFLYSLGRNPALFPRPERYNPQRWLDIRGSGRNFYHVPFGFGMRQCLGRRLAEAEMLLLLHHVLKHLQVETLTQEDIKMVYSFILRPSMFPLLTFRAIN

Row | EC50 (CYP11B2 [1]) [nM] | EC50 (human CYP11B1) [nM] | Compound | other results
1 | 27 | 6140 | Cc1ccncc1C(=O)N1CC(Nc2cncc(N3C(=O)c4ccc(C#N)cc4C3(C)C)c2)C1 [Example 32, 3,3-Dimethyl-2-[5-[[1-(4-methylpyridine-3-carbonyl)azetidin-3-yl]amino]-3-pyridyl]-1-oxo-isoindoline-5-carbonitrile] | 
2 | 31 | 29500 | Cn1cc(C(=O)N2CC(Nc3cncc(N4C(=O)c5ccc(C#N)cc5C4(C)C)c3)C2)cn1 [Example 33] | 
3 | 5 | 586 | Cn1ccnc1C(=O)N1CC(Nc2cncc(N3C(=O)c4ccc(C#N)cc4C3(C)C)c2)C1 [Example 34, 3,3-Dimethyl-2[5-[[1-(1-methylimidazole-2-carbonyl)azetidin-3-yl]amino]-3-pyridyl]-1-oxo-isoindoline-5-carbonitrile] | 
4 | 22 | 1400 | CC1(C)c2cc(C#N)ccc2C(=O)N1c1cncc(NC2CCN(C(=O)c3ncccc3Cl)CC2)c1 [Example 36, 2-[5-[[1-(3-Chloropyridine-2-carbonyl)-4-piperidyl]amino]-3-pyridyl]-3,3-dimethyl-1-oxo-isoindoline-5-carbonitrile] | 
5 | 31 | 1200 | CC1(C)c2cc(C#N)ccc2C(=O)N1c1cncc(NC2CN(C(=O)c3ncccc3Cl)C2)c1 [Example 38, 2-[5-[[1-(3-Chloropyridine-2-carbonyl)azetidin-3-yl]amino]-3-pyridyl]-3,3-dimethyl-1-oxo-isoindoline-5-carbonitrile] | 
6 | 25 | 13900 | Cn1cncc1C(=O)N1CC(Nc2cncc(N3C(=O)c4ccc(C#N)cc4C3(C)C)c2)C1 [Example 39, 3,3-Dimethyl-2-[5-[[1-(3-methylimidazole-4-carbonyl)azetidin-3-yl]amino]-3-pyridyl]-1-oxo-isoindoline-5-carbonitrile] | 

Second part, the molecule before the results:

Row | Compound | EC50 (CYP11B2 [1]) [nM] | EC50 (human CYP11B1) [nM] | other results
7 | Cc1ccncc1C(=O)N1CC2(CC(Nc3cncc(N4C(=O)c5ccc(Cl)cc5C4(C)C)c3)C2)C1 [Example 19, 5-Chloro-3,3-dimethyl-2-[5-[[2-(4-methylpyridine-3-carbonyl)-2-azaspiro[3.3]heptan-6-yl]amino]pyridin-3-yl]isoindol-1-one] | 86 | 10900 | 
8 | Cc1noc(C)c1C(=O)N1CC(Nc2cncc(N3CCc4cc(Cl)ccc4C3=O)c2)C1 [Example 20, 6-Chloro-2-[5-[[1-(3,5-dimethylisoxazole-4-carbonyl)azetidin-3-yl]amino]-3-pyridyl]-3,4-dihydroisoquinolin-1-one] | 55 | 3880 | 
9 | Cn1cc(C(=O)N2CC(Nc3cncc(N4CCc5cc(Cl)ccc5C4=O)c3)C2)cn1 [Example 21, 6-Chloro-2-[5-[[1-(1-methylpyrazole-4-carbonyl)azetidin-3-yl]amino]-3-pyridyl]-3,4-dihydroisoquinolin-1-one] | 7 | 16900 | 
10 | Cn1ccnc1C(=O)N1CC(Nc2cncc(N3CCc4cc(Cl)ccc4C3=O)c2)C1 [Example 22, 6-Chloro-2-[5-[[1-(1-methylimidazole-2-carbonyl)azetidin-3-yl]amino]-3-pyridyl]-3,4-dihydroisoquinolin-1-one] | 23 | 2090 | 
11 | Cc1noc(C)c1C(=O)N1CC(Nc2cncc(N3C(=O)c4ccc(Cl)cc4C3(C)C)c2)C1 [Example 23, 5-Chloro-2-[5-[[1-(3,5-dimethylisoxazole-4-carbonyl)azetidin-3-yl]amino]-3-pyridyl]-3,3-dimethyl-isoindolin-1-one] | 30 | 5950 | 
12 | Cn1cc(C(=O)N2CC(Nc3cncc(N4C(=O)c5ccc(Cl)cc5C4(C)C)c3)C2)cn1 [Example 24, 5-Chloro-3,3-dimethyl-2-[5-[[1-(1-methylpyrazole-4-carbonyl)azetidin-3-yl]amino]-3-pyridyl]isoindolin-1-one] | 1 | 6020 | 
13 | CC1(C)c2cc(C#N)ccc2C(=O)N1c1cncc(NC2CN(S(=O)(=O)C3CC3)C2)c1 [Example 31, 2-[5-[(1-Cyclopropylsulfonylazetidin-3-yl)amino]-3-pyridyl]-3,3-dimethyl-1-oxo-isoindoline-5-carbonitrile] | 12 | 7000 | 
14 | CC1(C)c2cc(C#N)ccc2C(=O)N1c1cncc(NC2CCN(S(=O)(=O)C3CC3)CC2)c1 [Example 35, 2-[5-[(1-Cyclopropylsulfonyl-4-piperidyl)amino]-3-pyridyl]-3,3-dimethyl-1-oxo-isoindoline-5-carbonitrile] | 24 | 13300 | 
15 | Cc1ccncc1C(=O)N1CCC(Nc2cncc(N3C(=O)c4ccc(C#N)cc4C3(C)C)c2)CC1 [Example 37, 3,3-Dimethyl-2[5-[[1-(4-methylpyridine-3-carbonyl)-4-piperidyl]amino]-3-pyridyl]-1-oxo-isoindoline-5-carbonitrile] | 70 | 10500 | 
16 | Cn1cc(C(=O)N2CCC(Nc3cncc(N4C(=O)c5ccc(C#N)cc5C4(C)C)c3)CC2)cn1 [Example 40, 3,3-Dimethyl-2-[5-[[1-(1-methylpyrazole-4-carbonyl)-4-piperidyl]amino]-3-pyridyl]-1-oxo-isoindoline-5-carbonitrile] | 52 | 9570 | 
17 | Cn1ccnc1C(=O)N1CCC(Nc2cncc(N3C(=O)c4ccc(C#N)cc4C3(C)C)c2)CC1 [Example 41, 3,3-Dimethyl-2-[5-[[1-(1-methylimidazole-2-carbonyl)-4-piperidyl]amino]-3-pyridyl]-1-oxo-isoindoline-5-carbonitrile] | 17 | 190 | 
18 | Cn1cncc1C(=O)N1CCC(Nc2cncc(N3C(=O)c4ccc(C#N)cc4C3(C)C)c2)CC1 [Example 42, 3,3-Dimethyl-2-[5-[[1-(3-methylimidazole-4-carbonyl)-4-piperidyl]amino]-3-pyridyl]-1-oxo-isoindoline-5-carbonitrile] | 56 | 10600 | 
19 | N#Cc1ccc([C@H]2CCCc3cncn32)cc1 [FAD286] |  |  | plasma aldosterone [2]: reduced; angiotensin II and salt-stimulated PAI-1 mRNA expression in the aorta and the heart [2]: not; blood pressure and cardiovascular function and structure [3]: improved
20 | N#Cc1ccc([C@H]2CCc3cncn32)c(F)c1 [LCI699] |  |  | circulating aldosterone levels (CYP11B2 [4]; oral): significantly lower; blood pressure (CYP11B2 [4]): mildly decreased; hypokalemia (CYP11B2 [4]): corrected
21 | CC(=O)S[C@@H]1CC2=CC(=O)CC[C@]2(C)[C@H]2CC[C@@]3(C)[C@@H](CC[C@@]34CCC(=O)O4)[C@H]12 [spironolactone] |  |  | plasma aldosterone [2]: increased; angiotensin II and salt-stimulated PAI-1 mRNA expression in the aorta and the heart [2]: enhanced
